In brackets after ≈: the same amount, converted by molar mass. Read-outs that look alike come from different tables or passages of the source.
Assays:
[1] = Kinetic solubility in liquid formulation containing mannitol and glycine buffer; assay type: physicochemical; settings: 4% mannitol; for Solubility (kinetic): 50 mM glycine sodium; for solubility kinetic at 1 day / solubility kinetic at 2 day / solubility kinetic at 3 day / solubility kinetic at 4 day / solubility kinetic at 5 day: IV vehicle: 50 mM glycine sodium, thermodynamic from solid; for solubility kinetic at 5 day: pH 8.8, Day 5
Procedure: Three solid state forms of Elinogrel were tested: i.e., Form B (mono potassium hemi hydrate), Form C (hemi potassium trihydrate), and the Free Acid form. Excess Elinogrel (i.e., ˜10 mg/ml when fully dissolved) was equilibrated with the IV vehicle composed of 50 mM glycine sodium and 4% mannitol at RT or refrigerated. The pH was monitored and adjusted to the target range using NaOH or HCl.

[2] = Solubility in co-solvents (propylene glycol, ethanol); assay type: physicochemical; settings: propylene glycol/ethanol co-solvent mixture, aqueous with cosolvent or surfactant or cyclodextrin, thermodynamic from solid, 10% EtOH, no pH adjustment, 25° C.
Procedure: Excess Elinogrel potassium solids were added into ½ mL of 25% or 75% propylene glycol with 10% ethanol and the suspensions were equilibrated for 12 days at ambient temperature. Solubilities were determined by analyzing concentration of supernatants via HPLC.

[3] = Solubility in sodium sulfobutyl ether β-cyclodextrin solutions over time; assay type: physicochemical
Procedure: A set of samples in 0, 10, 20, and 40% sodium sulfobutyl ether β-cyclodextrin with no pH adjustment were equilibrated for 12 days and concentrations of supernatants at 1, 3, 6, and 12 days were determined.
The solubility results of Elinogrel potassium at various sodium sulfobutyl ether β-cyclodextrin concentrations as a function of time (without pH adjustment) are shown in Table 4. […] There is a continued decrease of solubility overtime, before it approaching plateau at each SBE-β-CD level.

[4] = pH 9.3
Procedure: (§1) The white to off-white wet solids were collected by centrifugation at 13,000 rpm for 5 min and supernatant removal.

physchem = settings: thermodynamic from solid, S (solubility)
Procedure: as §1

[5] = pKa, logP and logD of Elinogrel; assay type: physicochemical
[6] = Aqueous solubility of the free acid form; assay type: physicochemical; settings: aqueous medium, aqueous buffer; pH 1.0-7.4
[7] = Thermodynamic solubility at different pH at 37° C.; assay type: physicochemical; settings: aqueous slurry, thermodynamic from solid
Procedure: The thermodynamic solubility of Elinogrel potassium salt and free acid in pH range of 1-10 at 37° C. was also determined. Excess Elinogrel free acid or potassium salt (start from Form B) was equilibrated with its aqueous slurries at various pH under constant agitation. Different amounts of NaOH or HCl solution were used to adjust pH. Solubility was determined after 3 days by analyzing the elinogrel concentration in supernatant of the slurry after ultracentrifugation.

[8] = system: Male New Zealand White rabbits; assay: Rabbit vein and tissue irritation study; assay type: in vivo; settings: 4% mannitol, perivascular and subcutaneous, 5 days
Procedure: Male New Zealand White rabbits were utilized in this study. Rabbits received 3 injections:
Intravenous (IV): 1.0 mL in left marginal ear vein;
Perivascular: 0.5 mL near the right marginal ear vein; and
Subcutaneous (SC): 1.0 mL in the scapular region of the dorsal back.
There were four rabbits per each of the following dose groups.
Normal Saline: 0.9% sodium chloride
Vehicle: 10 mM sodium glycine, 4% mannitol, pH 9.31
Elinogrel (Na salt) at 16.7 mg/mL in 10 mM glycine, 4% mannitol, pH 9.33
Elinogrel (K salt) at 4.0 mg/mL in 50 mM glycine, 4% mannitol, pH 9.38
On day 5, tissues (ears and skin) were harvested and processed for histological examination of the injection site.

Q: For `CNc1cc2[nH]c(=O)n(-c3ccc(NC(=O)NS(=O)(=O)c4ccc(Cl)s4)cc3)c(=O)c2cc1F` [Elinogrel potassium (Form B)], which “Solubility (kinetic)” value ([1]; RT, pH 8.8, Day 1, listed as Elinogrel K salt-Form B, potassium salt) is on record?
A: 5930 µg/mL

Q: What about the “Solubility (kinetic)” value ([1]; RT, pH 8.8, Day 2, listed as Elinogrel K salt-Form B, potassium salt) of the same compound?
A: 5200 µg/mL

Q: What about the “Solubility (kinetic)” value ([1]; RT, pH 8.8, Day 3, listed as Elinogrel K salt-Form B, potassium salt) of the same compound?
A: 1750 µg/mL

Q: What about the “Solubility (kinetic)” value ([1]; RT, pH 8.8, Day 4, listed as Elinogrel K salt-Form B, potassium salt) of the same compound?
A: 2080 µg/mL

Q: What about the “Solubility (kinetic)” value ([1]; RT, pH 8.8, Day 5, listed as Elinogrel K salt-Form B, potassium salt) of the same compound?
A: 1370 µg/mL

Q: What about the “Solubility (kinetic)” value ([1]; RT, pH 9, Day 1, listed as Elinogrel K salt-Form B, potassium salt) of the same compound?
A: 5890 µg/mL

Q: What about the “Solubility (kinetic)” value ([1]; RT, pH 9, Day 2, listed as Elinogrel K salt-Form B, potassium salt) of the same compound?
A: 3560 µg/mL

Q: And the “Solubility (kinetic)” value ([1]; RT, pH 9, Day 3, listed as Elinogrel K salt-Form B, potassium salt)?
A: 1780 µg/mL

Q: What about the “Solubility (kinetic)” value ([1]; RT, pH 9, Day 4, listed as Elinogrel K salt-Form B, potassium salt) of the same compound?
A: 1950 µg/mL

Q: What about the “Solubility (kinetic)” value ([1]; RT, pH 9, Day 5, listed as Elinogrel K salt-Form B, potassium salt) of the same compound?
A: 1290 µg/mL

Q: And the solubility kinetic at 1 day ([1]; 5 °C, pH 8.8, aqueous buffer, 5° C., pH 8.8, Day 1)?
A: 5480 µg/mL

Q: And the solubility kinetic at 2 day ([1]; 5 °C, pH 8.8, aqueous buffer, 5° C., pH 8.8, Day 2)?
A: 4020 µg/mL

Q: And the solubility kinetic at 3 day ([1]; 5 °C, pH 8.8, aqueous buffer, 5° C., pH 8.8, Day 3)?
A: 1580 µg/mL

Q: And the solubility kinetic at 4 day ([1]; 5 °C, pH 8.8, aqueous buffer, 5° C., pH 8.8, Day 4)?
A: 1580 µg/mL

Q: And the solubility kinetic at 5 day ([1]; 5 °C, pH 8.8, aqueous buffer, 5° C.)?
A: 1110 µg/mL

Q: What about the solubility at 12 d ([2]; 25% PG, pH 7.0, read-out: S (solubility)) of the same compound?
A: 8000 µg/mL

Q: And the solubility at 12 d ([2]; 75% PG, pH 7.3, read-out: S (solubility))?
A: 21000 µg/mL

Q: Which “Solubility (kinetic)” value ([1]; RT, pH 8.8, Day 1, listed as Elinogrel K-Form C, potassium salt) does the source give for `CNc1cc2[nH]c(=O)n(-c3ccc(NC(=O)NS(=O)(=O)c4ccc(Cl)s4)cc3)c(=O)c2cc1F` [Elinogrel potassium (Form C)] here?
A: 2360 µg/mL

Q: What about the “Solubility (kinetic)” value ([1]; RT, pH 8.8, Day 2, listed as Elinogrel K-Form C, potassium salt) of the same compound?
A: 1920 µg/mL

Q: What about the solubility kinetic at 3 day ([1]; pH 8.8, aqueous buffer, RT, pH 8.8, Day 3) of the same compound?
A: 1790 µg/mL

Q: And the solubility kinetic at 4 day ([1]; pH 8.8, aqueous buffer, RT, pH 8.8, Day 4)?
A: 2150 µg/mL

Q: And the solubility kinetic at 5 day ([1]; pH 8.8, aqueous buffer, RT)?
A: 1450 µg/mL

Q: What about the “solubility in 20% sodium sulfobutyl ether β-cyclodextrin relative to that in water” value ([3]; 20% sodium sulfobutyl ether β-cyclodextrin vs water) of the same compound?
A: approximately 4 fold

Q: What about the Elinogrel potassium conc. ([3]; 20% sodium sulfobutyl ether β-cyclodextrin, 12 d, no pH adjustment (pH~7), potassium salt) of the same compound?
A: 11.5 mg/mL

Q: Which results are given for `CNc1cc2[nH]c(=O)n(-c3ccc(NC(=O)NS(=O)(=O)c4ccc(Cl)s4)cc3)c(=O)c2cc1F` [Elinogrel sodium hydrate]?
A: S (solubility) [4]: 17000 µg/mL; solubility (physchem; 4 °C, water): 13000 µg/mL; solubility (physchem; pH 9.2, water): 23000 µg/mL; solubility (physchem; pH 9.3, aqueous buffer): 16000 µg/mL

Q: Which results are given for `CNc1cc2[nH]c(=O)n(-c3ccc(NC(=O)NS(=O)(=O)c4ccc(Cl)s4)cc3)c(=O)c2cc1F` [Elinogrel, [4-(6-Fluoro-7-methylamino-2,4-dioxo-1,4-dihydro-2H-quinazolin-3-yl)-phenyl]-5-chloro-thiophen-2-yl-sulfonylurea]?
A: logP [5]: about 2.5; pKa [5]: ~3.3; logD ([5]; pH 7.4): about −1.6; solubility [6]: < 100 µg/mL; Solubility (kinetic) ([1]; RT, pH 9, Day 5, listed as Elinogrel free acid-Form B): 4050 µg/mL (≈ 7730 µM); solubility kinetic at 1 day ([1]; pH 9, aqueous buffer, RT, pH 9, Day 1): 3140 µg/mL (≈ 5990 µM); solubility kinetic at 2 day ([1]; pH 9, aqueous buffer, RT, pH 9, Day 2): 3230 µg/mL (≈ 6160 µM); solubility kinetic at 3 day ([1]; pH 9, aqueous buffer, RT, pH 9, Day 3): 3330 µg/mL (≈ 6360 µM); solubility kinetic at 4 day ([1]; pH 9, aqueous buffer, RT, pH 9, Day 4): 2650 µg/mL (≈ 5060 µM); solubility thermodynamic at 3 days ([7]; aqueous buffer, pH 3.00): 0.057 µg/mL (≈ 0.109 µM); solubility thermodynamic at 3 days ([7]; aqueous buffer, pH 8.11): 418 µg/mL (≈ 799 µM); solubility thermodynamic at 3 days ([7]; pH 1.1, simulated gastric fluid, pH 1.10): 0.03 µg/mL (≈ 0.0573 µM); solubility thermodynamic at 3 days ([7]; pH adjusted with NaOH or HCl, aqueous buffer, pH 5.97): 0.544 µg/mL (≈ 1.04 µM); solubility thermodynamic at 3 days ([7]; pH adjusted with NaOH or HCl, aqueous buffer, pH 6.61): 2.17 µg/mL (≈ 4.14 µM); solubility thermodynamic at 3 days ([7]; pH adjusted with NaOH or HCl, aqueous buffer, pH 7.22): 46.6 µg/mL (≈ 88.9 µM); solubility thermodynamic at 3 days ([7]; pH adjusted with NaOH or HCl, pH 4.2, aqueous buffer, pH 4.20): 0.022 µg/mL (≈ 0.042 µM); solubility thermodynamic at 3 days ([7]; simulated gastric fluid, pH 1.88): 0.002 µg/mL (≈ 0.00382 µM); tolerability of injection ([8]; K salt at 4.0 mg/mL in 50 mM glycine, pH 9.38, intravenous): well tolerated; tolerability of injection ([8]; Na salt at 16.7 mg/mL in 10 mM glycine, pH 9.33, intravenous): well tolerated
